# Results reported in US7807867B2, “Gene encoding protein involved in cytokinin synthesis” (Suntory Holdings Limited, priority 2001, dated 2010).
# T1: AtIPT4 (Arabidopsis thaliana, UniProt Q9SB60)
# T1 construct: made in house
# T1 sequence (Q9SB60 1-318): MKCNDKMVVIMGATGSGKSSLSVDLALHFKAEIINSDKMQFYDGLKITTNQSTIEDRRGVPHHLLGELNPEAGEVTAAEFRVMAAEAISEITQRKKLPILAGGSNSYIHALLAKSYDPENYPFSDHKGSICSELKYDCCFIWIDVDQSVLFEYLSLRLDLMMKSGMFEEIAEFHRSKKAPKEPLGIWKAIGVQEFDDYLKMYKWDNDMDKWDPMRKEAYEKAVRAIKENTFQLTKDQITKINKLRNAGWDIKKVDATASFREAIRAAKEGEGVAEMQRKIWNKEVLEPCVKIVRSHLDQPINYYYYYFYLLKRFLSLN
# T2: AtIPT1 (Arabidopsis thaliana, UniProt Q94ID3)
# T2 construct: made in house
# T2 sequence (Q94ID3 72-357): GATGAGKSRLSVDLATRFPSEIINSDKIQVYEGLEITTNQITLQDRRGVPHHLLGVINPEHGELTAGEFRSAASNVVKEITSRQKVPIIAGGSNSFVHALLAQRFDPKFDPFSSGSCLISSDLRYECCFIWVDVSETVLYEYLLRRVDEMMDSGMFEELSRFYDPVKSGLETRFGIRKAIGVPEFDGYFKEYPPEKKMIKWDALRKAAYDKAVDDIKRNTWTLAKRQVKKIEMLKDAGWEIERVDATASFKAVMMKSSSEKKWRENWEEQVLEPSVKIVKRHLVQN
# B1: AtIPT4 (Arabidopsis thaliana) (protein)
# chain: T1 sequence (Q9SB60 1-318)
# Key:
# AtIPT4 = target: T1, AtIPT4; assay: Enzyme activity of purified AtIPT4 protein (dimethylallyl transfer, Km); type: biochemical; settings: for transfer of the dimethylallyl group of DMAPP to the substrate: 3H-labeled substrate at 0.25 μM, Ni-NTA bound AtIPT4 (Sample D), 30 minutes at 23° C.
# Protocol: This was designated as Sample A. 400 μl of Ni-NTA agarose suspension (containing 110 μl of Ni-NTA agarose as precipitate, 30 mM NaH2PO4 (pH 8), […], 0.9 M NaCl, 7.5 mM β-mercaptoethanol, 0.5 mM PMSF and 30 μg/ml of leupeptin) were added to 800 μl of Sample A. This suspension was designated as Sample B. Sample B was then centrifuged to separate into supernatant (Sample C) and precipitate. Washing liquid (consisting of 20 mM NaH2PO4 (pH 8), […], 0.3 M NaCl, 5 mM β-mercaptoethanol, 0.5 mM PMSF and 10 μg/ml of leupeptin) was added to the precipitate, and the Ni-NTA agarose was washed four times using a procedure in which the precipitate was recovered by centrifugation. […] After adding 700 μl of ethyl acetate to this reaction liquid followed by stirring and centrifuging, 550 μl of the ethyl acetate layer were recovered followed by the addition of 500 μl of distilled water. After stirring and centrifugal separation, 350 μl of the ethyl acetate layer were recovered followed again by the addition of 500 μl of distilled water. After again stirring and separating by centrifugation, 0.5 ml of ACSII (Pharmacia) were added to 50 μl of the ethyl acetate layer followed by measurement of radioactivity with a liquid scintillation counter.
# AtIPT1 = target: T2, AtIPT1; assay: Enzyme activity of AtIPT1 protein (dimethylallyl transfer); type: biochemical
# tzs = tzs (Agrobacterium fabrum, UniProt P58758); settings: read-out: Km of tzs for AMP; cited from earlier work
# [1] = substrate: CC(C)=CCOP(=O)(O)OP(=O)(O)O; assay: purified protein, by the assay type; settings: other: in the presence of 200 μM ATP; purified recombinant AtIPT4 protein; 23.0 °C
# tzs, sequence (P58758 whole entry): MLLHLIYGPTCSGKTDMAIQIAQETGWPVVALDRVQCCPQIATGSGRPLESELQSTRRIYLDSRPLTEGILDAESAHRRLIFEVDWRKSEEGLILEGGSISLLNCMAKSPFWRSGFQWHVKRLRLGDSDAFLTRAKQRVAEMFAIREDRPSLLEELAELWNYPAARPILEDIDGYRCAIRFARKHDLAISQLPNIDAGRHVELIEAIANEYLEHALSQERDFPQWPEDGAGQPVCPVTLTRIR
Molecule,transfer of the dimethylallyl group of DMAPP to the substrate (AtIPT4),transfer of a dimethylallyl group to the substrate (AtIPT1),Km (tzs),"Km (AtIPT4; in the presence of 0.4 mM DMAPP, purified recombinant AtIPT4 protein (2 ng/ml), read-out: Km for ATP)",Km [1]
Nc1ncnc2c1ncn2[C@@H]1O[C@H](COP(=O)(O)OP(=O)(O)O)[C@@H](O)[C@H]1O [ADP],efficiently transferred,activity that transfers a dimethylallyl group,,,
"Nc1ncnc2c1ncn2[C@@H]1O[C@H](COP(=O)(O)O)[C@@H](O)[C@H]1O [AMP, adenosine monophosphate]",,,11.1 µM,,
Nc1ncnc2c1ncn2[C@@H]1O[C@H](COP(=O)(O)OP(=O)(O)OP(=O)(O)O)[C@@H](O)[C@H]1O [ATP],efficiently transferred,activity that transfers a dimethylallyl group,,~11.1 µM,
B1,,,,,6.5 µM
